Where two headings read alike, the source gives them in different places.
Legend:
PRMT5/MEP50 complex [1] = target: T1, PRMT5/MEP50 complex (Homo sapiens (Human), UniProt O14744); test: Flash plate assay; type: biochemical
Description: Flash plate assay. Compounds were solubilized, and 3-fold diluted in 100% DMSO. […] Standard reactions were performed in a total volume of 30 μl in assay buffer, with 300 nM histone H4 based AcH4-23 (Anaspec: AS-65002) as substrate. To this was added the PRMT5/MEP50 complex diluted to provide a final assay concentration of 2.5 nM and the compounds were allowed to preincubate for 20 minutes at 37° C. The reaction was initiated by adding S-[3H-methyl]-adenosyl-L-methionine (PerkinElmer: NET155001MC) to final concentration of 1 μM. Following a 30 minutes incubation at 37° C., the reaction was stopped by adding 25 μL of 8M Guanidine HCl. Prepare streptavidin YSI SPA beads (Perkinelmer: RPNQ0012) at 0.3 mg/mL in assay buffer. To each reaction, add 150 μL of SPA beads suspension, and incubated while shaking at room temperature for 30 minutes. The plate was centrifuged at 100×g for 30 second before reading in a scintillation counter. IC50 values were determined by fitting the data to the standard 4 parameters with Hill Slope using GraphPad Prism software. This procedure produced the Flash Plate data in Table 7.

PRMT5/MEP50 complex [2] = target: T1, PRMT5/MEP50 complex; test: HotSpot Assay; type: biochemical
Description: HotSpot Assay. Compounds were solubilized and 3-fold diluted in 100% DMSO. […] Standard reactions were performed in a total volume of 50 μl in assay buffer, with histone H2A (5 μM final) as substrate. To this was added the PRMT5/MEP50 complex diluted to provide a final assay concentration of 5 nM and the compounds were allowed to preincubate for 15 to 20 minutes at room temperature. The reaction was initiated by adding S-[3H-methyl]-adenosyl-L-methionine (PerkinElmer) to final concentration of 1 μM. Following a 60 minutes incubation at 30° C., the reaction was stopped by adding 100 μL of 20% TCA. Each reaction was spotted onto filter plate (MultiScreen FB Filter Plate, Millipore), and washed 5 times with PBS buffer, Scintillation fluid was added to the filter plate and read in a scintillation counter. IC50 values were determined by fitting the data to the standard 4 parameters with Hill Slope using GraphPad Prism software. This procedure generated the HotSpot data in Table 7.

[3] = tested on: Symmetric Di-Methyl Arginine (sDMA) marks in Granta-519 cells; test: sDMA Western blot / In Cell Western in Granta-519 cells; type: cell-based; conditions: Homo sapiens
Description: Compound titration and cell culture: Compounds were dissolved in DMSO to make 10 mM stock and 3-fold series dilutions were further conducted to make working stocks top at 1 mM. Granta-519 cells were maintained in PRMI 1640 (Corning Cellgro, Catalog #: 10-040-CV) supplemented with 10% v/v FBS (GE Healthcare, Catalog #: SH30910.03) and U-87 MG cells were maintained in DMEM (Corning Cellgro, Catalog #: 10-013-CV) with 10% FBS and 2 mM Glutamin (Corning Cellgro, Catalog #25005CV).
To determine enzyme inhibition IC50 values in Granta-519 and U-87 MG cells using Western Blot analysis. One day before experiment, Granta-519 cells were passaged to a density of 0.5×10^6 cells/ml. U-87 MG cells were trypsinized and 4×10^5 cells were seeded into 6-well plates and allow to grow overnight. The next day, Granta-519 cells were spun down at 1,500 rpm for 4 min, resuspend in fresh medium at 0.5×10^6 cells/ml and 3 mL of culture (1.5×10^6 cells) were seeded into 6 well plate. Eight-point, 3-fold serial dilutions of compound working stocks were added to cells (3 ul, 1:1,000 dilution, DMSO concentration was 0.1%; final top concentration at 1 uM) and incubated for 3 days. Cells incubated with DMSO was used as a vehicle control.
Cells were harvested 3 days later, resuspended in 15 uL PBS, lysed in 4% SDS, and homogenized by passing through homogenizer column (Omega Biotek, Catalog #: HCR003). Total protein concentrations were determined by BCA assay (ThermoFisher Scientific, Catalog #: 23225). Lysates were mixed with 5× Laemmli buffer and boiled for 5 min. Forty ug of total protein was separated on SDS-PAGE gels (Bio-Rad, catalog #: 4568083, 4568043), transferred to PVDF membrane, blocked with 5% dry milk (Bio-Rad, Catalog #: 1706404) in TBS with 0.1% v/v Tween 20 (TBST) for 1 hour at room temperature (RT), and incubated with primary antibodies (sDMA: Cell signaling, Catalog #: 13222, 1:3,000; β-Actin: sigma, Catalog #: 1:5,000) in 5% dry milk in TBST at 4° C. overnight. The next day, membranes were washed with TBST, 5×5 min, and incubated with HRP conjugated seconded antibody (GE Healthcare; Catalog #: NA934-1ML, NA931-1ML; 1:5,000) for 2 hours at RT, followed by 5×5 min washes with TBST, and incubation with ECL substrates (Bio-Rad, Catalog #: 1705061, 1705062). Chemiluminescent signal was captured with Fluochem HD2 imager (Proteinsimple). SmD3me2s bands were quantified by ImageJ. Signals were normalized to β-Actin and DMSO control. IC50 values were calculated using Graphpad Prism ([Inhibitor]vs. normalized response−Variable slope).
sDMA In Cell Western procedure (ICW): Granta-519 cells were passaged to a density of 0.5×10^6 cells/ml one day before experiments and allowed to grow overnight. The next day (day 0), cells were spun down at 1,500 rpm for 4 min, resuspended in fresh medium to 0.2×10^6 cells/ml and 100 uL of cells were added to 384-well plates using a Multidrop Combi Dispenser (ThermoFisher). A series of 9-point, 3-fold serial dilutions of compounds were prepared and dispensed into wells from a 1 mM stock solution using a TECAN digital dispenser (D300e) and the DMSO % concentration was normalized in each well to 0.1%. DMSO and 3 uM of reference compounds were used as negative (minimum inhibition) and positive (maximum inhibition) controls, respectively. After 3 days of incubation, cells were first resuspended and then 80 ul of cells were transferred to a Poly-D-lysine 384-well plate (Corning, Catalog #354663), followed by 30 minutes incubation at room temperature (RT) and 5 additional hours of incubation at 37° C. […]

[4] = 72 h, Granta-519, 3 days, read-out: sDMA_Granta IC50
[5] = initial testing, read-out: IC50 (flash plate)

T1 sequence (O14744 whole entry): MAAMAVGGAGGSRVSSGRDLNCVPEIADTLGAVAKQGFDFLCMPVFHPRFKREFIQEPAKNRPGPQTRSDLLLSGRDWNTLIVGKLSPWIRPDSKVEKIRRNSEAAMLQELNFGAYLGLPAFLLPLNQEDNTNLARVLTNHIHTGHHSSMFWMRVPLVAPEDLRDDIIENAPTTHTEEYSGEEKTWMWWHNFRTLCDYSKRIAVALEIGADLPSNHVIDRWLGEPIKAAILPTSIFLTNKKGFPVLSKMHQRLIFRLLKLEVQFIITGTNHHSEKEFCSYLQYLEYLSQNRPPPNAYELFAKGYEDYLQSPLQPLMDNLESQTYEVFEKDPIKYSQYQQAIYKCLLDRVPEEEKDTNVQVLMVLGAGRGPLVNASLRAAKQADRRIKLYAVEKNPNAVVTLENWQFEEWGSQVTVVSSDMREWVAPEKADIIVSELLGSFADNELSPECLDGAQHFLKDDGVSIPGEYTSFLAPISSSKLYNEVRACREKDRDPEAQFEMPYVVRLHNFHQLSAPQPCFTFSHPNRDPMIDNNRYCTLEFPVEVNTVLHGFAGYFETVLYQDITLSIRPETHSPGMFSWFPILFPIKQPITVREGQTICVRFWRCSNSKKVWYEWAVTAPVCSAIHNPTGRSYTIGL
T1 sequence (Q9BQA1 whole entry partner): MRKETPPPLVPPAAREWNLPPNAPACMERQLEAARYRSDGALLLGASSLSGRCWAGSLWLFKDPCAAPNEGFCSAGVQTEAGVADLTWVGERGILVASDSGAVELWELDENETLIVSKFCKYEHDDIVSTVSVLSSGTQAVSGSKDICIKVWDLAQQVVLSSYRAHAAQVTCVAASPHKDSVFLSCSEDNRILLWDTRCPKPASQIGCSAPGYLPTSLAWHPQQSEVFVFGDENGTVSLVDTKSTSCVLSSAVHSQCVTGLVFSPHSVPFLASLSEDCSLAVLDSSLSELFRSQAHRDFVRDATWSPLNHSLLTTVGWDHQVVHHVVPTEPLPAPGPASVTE

IC50 (PRMT5/MEP50 complex [1]; read-out: Flash Plate IC50)	IC50 (PRMT5/MEP50 complex [2])	IC50 [3, 4]	IC50 (PRMT5/MEP50 complex [1]; [5])	IC50 ([3]; Granta-519, initial testing, read-out: sDMS (Granta) IC50)	Structure (SMILES)
20 nM	11 nM	3780 nM	–	–	Nc1ncnc2c1c(Br)cn2[C@@H]1O[C@H]([C@H](O)c2ccc3c(c2)CC3)[C@@H](O)[C@H]1O [Example 36, (2R,3R,4S,5R)-2-(4-amino-5-bromo-7H-pyrrolo[2,3-d]pyrimidin-7-yl)-5-((R)-bicyclo[4.2.0]octa-1,3,5-trien-3-yl(hydroxy)methyl)tetrahydrofuran-3,4-diol]
37.6 nM	–	759 nM	–	–	CNc1ncnc2c1ccn2[C@@H]1O[C@H]([C@H](O)c2ccc3c(c2)CC3)[C@@H](O)[C@H]1O [Example 54, (2R,3S,4R,5R)-2-((R)-bicyclo[4.2.0]octa-1(6),2,4-trien-3-yl(hydroxy)methyl)-5-(4-(methylamino)-7H-pyrrolo[2,3-d]pyrimidin-7-yl)tetrahydrofuran-3,4-diol]
2.8 nM	0.7 nM	38 nM	–	–	Nc1ncnc2c1c(F)cn2[C@@H]1O[C@H]([C@H](O)c2ccc3c(c2)CC3)[C@@H](O)[C@H]1O [Example 6, (2R,3R,4S,5R)-2-(4-amino-5-fluoro-7H-pyrrolo[2,3-d]pyrimidin-7-yl)-5-((R)-bicyclo[4.2.0]octa-1(6),2,4-trien-3-yl(hydroxy)methyl)tetrahydrofuran-3,4-diol]
9.3 nM	9 nM	1700 nM	–	–	Cc1ncnc2c1ccn2[C@@H]1O[C@H]([C@H](O)c2nc3c(s2)CCC3)[C@@H](O)[C@H]1O [Example 52, (2S,3S,4R,5R)-2-((S)-(5,6-dihydro-4H-cyclopenta[d]thiazol-2-yl)(hydroxy)methyl)-5-(4-methyl-7H-pyrrolo[2,3-d]pyrimidin-7-yl)tetrahydrofuran-3,4-diol]
17.6 nM	–	923 nM	–	–	O[C@@H]1[C@H](O)[C@@H]([C@H](O)c2ccc3c(c2)CC3)O[C@H]1n1ccc2c(Cl)ncnc21 [Example 56, (2R,3S,4R,5R)-2-((R)-bicyclo[4.2.0]octa-1(6),2,4-trien-3-yl(hydroxy)methyl)-5-(4-chloro-7H-pyrrolo[2,3-d]pyrimidin-7-yl)tetrahydrofuran-3,4-diol]
6.2 nM	3 nM	22 nM	6.3 nM	9 nM	C[C@@](O)(c1ccc2c(c1)CC2)[C@H]1O[C@@H](n2ccc3c(N)ncnc32)[C@H](O)[C@@H]1O [Example 1, (2R,3R,4S,5S)-2-(4-amino-7H-pyrrolo[2,3-d]pyrimidin-7-yl)-5-((R)-1-(bicyclo[4.2.0]octa-1(6),2,4-trien-3-yl)-1-hydroxyethyl)tetrahydrofuran-3,4-diol]
134 nM	164 nM	5240 nM	–	–	OCCc1ncnc2c1ccn2[C@@H]1O[C@H]([C@H](O)c2ccc3c(c2)CC3)[C@@H](O)[C@H]1O [Example 53, (2R,3S,4R,5R)-2-((R)-bicyclo[4.2.0]octa-1,3,5-trien-3-yl(hydroxy)methyl)-5-(4-(2-hydroxyethyl)-7H-pyrrolo[2,3-d]pyrimidin-7-yl)tetrahydrofuran-3,4-diol]
4.1 nM	2 nM	20 nM	4.2 nM	–	Nc1ncnc2c1ccn2[C@@H]1O[C@H]([C@H](O)c2ccc3c(c2)CC3)[C@@H](O)[C@H]1O [Example 2, (2R,3R,4S,5R)-2-(4-amino-7H-pyrrolo[2,3-d]pyrimidin-7-yl)-5-((R)-bicyclo[4.2.0]octa-1(6),2,4-trien-3-yl(hydroxy)methyl)tetrahydrofuran-3,4-diol]

Structure (SMILES)	IC50 (PRMT5/MEP50 complex [1]; read-out: Flash Plate IC50)	IC50 (PRMT5/MEP50 complex [2])	IC50 [3, 4]	IC50 (PRMT5/MEP50 complex [1]; [5])	IC50 ([3]; Granta-519, initial testing, read-out: sDMS (Granta) IC50)
Cc1ncnc2c1ccn2[C@@H]1O[C@H]([C@H](O)c2ccc3c(c2)CC3)[C@@H](O)[C@H]1O [Example 11, (2R,3S,4R,5R)-2-((R)-bicyclo[4.2.0]octa-1(6),2,4-trien-3-yl(hydroxy)methyl)-5-(4-methyl-7H-pyrrolo[2,3-d]pyrimidin-7-yl)tetrahydrofuran-3,4-diol]	6.8 nM	3 nM	33 nM	5.9 nM	–

— US11524962B2, “Substituted pyrrolo[2,3-d]pyrimidines as inhibitors of protein arginine methyl transferase 5 (PRMT5)” (PRELUDE THERAPEUTICS, INCORPORATED, priority 2017, dated 2022)
